Assay results from US5958875A, “Synthetic peptides derivatives with nerve growth factor-like neurotrophic activity” (The Regents of the University of California, priority 1996, dated 1999).
“Also recorded” adds a separate entry of the source.

T1: NGF p75 receptor (Gallus gallus, UniProt P18519)
T1 construct: Dorsal root ganglia were dissected from embryonic day 8 chick embryos; endogenous in cells; host or cells: primary neurons dissociated from embryonic day 8 chick dorsal root ganglia
T1 sequence (P18519 20-416): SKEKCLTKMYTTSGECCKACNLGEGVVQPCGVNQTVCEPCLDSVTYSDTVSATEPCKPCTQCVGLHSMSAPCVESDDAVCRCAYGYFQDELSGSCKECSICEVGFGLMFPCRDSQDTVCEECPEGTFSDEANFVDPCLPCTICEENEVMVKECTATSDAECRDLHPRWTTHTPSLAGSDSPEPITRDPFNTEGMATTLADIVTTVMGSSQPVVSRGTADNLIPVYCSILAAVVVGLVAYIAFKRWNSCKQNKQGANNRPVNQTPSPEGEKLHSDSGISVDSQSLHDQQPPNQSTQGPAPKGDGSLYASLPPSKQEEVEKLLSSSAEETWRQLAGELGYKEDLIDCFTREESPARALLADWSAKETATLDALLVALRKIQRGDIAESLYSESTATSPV

B1: NGF: Mouse submaxillary β-NGF purified via 7S NGF (protein, UniProt P01139 122-241, looked up)
Beta-nerve growth factor: SSTHPVFHMGEFSVCDSVSVWVGDKTTATDIKGKEVTVLAEVNINNSVFRQYFFETKCRASNPVESGCRGIDSKHWNSYCTTTHTFVKALTTDEKQAAWRFIRIDTACVCVLSRKATRRG
modifications: Beta-nerve growth factor
notes: Mouse submaxillary β-NGF purified via 7S NGF

Key:
Chick embryo DRG neurons [1] = assay: neurite outgrowth of cultured neurons; format: cell-based
Procedure: (§1) Bioassays were performed as previously described (Manthorpe et al, "An automated colorimetric microassay for neuronotrophic factors", Dev. Brain Res. 25:191-198 (1986)). Dorsal root ganglia were dissected from embryonic day 8 chick embryos and placed in calcium and magnesium-free Dulbecco's balanced salt solution on ice. […] During this incubation non-neuronal cells (Schwann cells, fibroblasts) more readily attached to the substratum leaving a supernatant containing an enriched neuronal population (80-85% neurons). […]
Neuronal survival and neurite outgrowth were assessed by a combination of morphological criteria described previously (Longo et al, "The in vitro biological effect of nerve growth factor is inhibited by synthetic peptides" Cell Regulation 1:189-195 (1990)) and an MTT calorimetric assay (Manthorpe et al., "An automated colorimetric microassay for neuronotrophic factors", Dev. Brain Res. 25:191-198 (1986)). […] The blue product can be quantitated by lysing cells with acid alcohol to solubilize the blue product and measuring overall optical density or by counting the number per area of intact surviving neurons with blue dye. […] For each peptide or NGF concentration, duplicate wells were counted in each bioassay and four values (two strips counted/well) averaged. In other assays, cells were lysed at 24 hours in acid alcohol and the MTT product was dissolved and quantified. […]

Chick embryo DRG neurons [2] = assay: automated MTT neurotrophic assay; format: cell-based; settings: HPLC fractions of ten cyclized/oxidized NGF 29-36 region peptides
Procedure: as §1
(§2) The bioassays used for measuring the NGF agonist activity of the compounds of this invention were initially characterized using NGF as a control. […] The neurotrophic activity of NGF is most easily assessed by measuring the number of cells surviving and bearing neurites; however, the lack of neurites in peptide-supported cultures required the use of additional criteria to assess peptide effect. In order to more accurately determine neuronal survival, MTT was added to cultures at 16 hours and cultures assessed under phase contrast microscopy at 24 hours. Intact cells characteristic of surviving neurons which also contained blue MTT product were counted. […] In subsequent studies, activity of both peptides and NGF was assessed by counting the number of intact cells with blue MTT product (morphological/MTT assay) and by the automated MTT assay. […]

Chick embryo DRG neurons [3] = assay: morphological/MTT assay of neuronal survival; format: cell-based; settings: HPLC fractions of cyclized/oxidized, scrambled and linear P7
Procedure: as §1, §2

NGF p75 receptor = biological target: T1, NGF p75 receptor; assay: survival-promoting activity in the presence of p75 antiserum (antibody 9651); format: cell-based, chick; settings: p75 antiserum 1:100 final dilution; morphological/MTT assay
Procedure: Antiserum (antibody 9651) directed against the third and fourth cysteine rich repeats of the extracellular domain of mouse p75 was obtained as described in Huber (infra). […] Antiserum and control non-immune serum were tested at final dilutions of 1:100 in the presence of NGF or peptide.
To determine if activity of P7 and P7-scrambled peptides was dependent on p75 , their activity in the presence of p75 antiserum (1:100 final dilution) which inhibits NGF neurotrophic activity was measured. […] In 15 bioassays, control background survival was 14±2% (S.E.) of the NGF maximum compared to a background in the presence of p75 antiserum of 13±2% in 5 of the same 15 assays.

Row | Molecule | neurite outgrowth (in words) (Chick embryo DRG neurons [1]) | survival-promoting activity (in words) (Chick embryo DRG neurons [2]) | survival-promoting activity of P7 forms (in words) (Chick embryo DRG neurons [3]) | inhibition of survival-promoting activity by p75 antiserum, average over the three concentrations tested (NGF p75 receptor) [%]
1 | IPenKGKEVCT [Peptide P7] | continued to lack neurites | highest activity at the lowest concentrations; also recorded: greatest survival-promoting activity at the lowest concentration | showed activity; also recorded: significantly greater activity than P7-scrambled peptides | 
2 | B1 |  |  |  | 40
